In patent US4782069A, “1,4-Dihydropiridines and their use as antithrombotic drugs” (Alter, S.A., priority 1986, dated 1988):

What was measured:
[1] = system: platelet thromboembolism in mice; assay: "In vivo" thrombosis model in the mouse (collagen + epinephrine i.v.); parameters: species or system CD-1 Charles River male mice; conditions: suspension in 0.5% carboxymethylcellulose, one to four hours after administration, i.v. 15 ug collagen and 1.8 ug epinephrine
Experimental: (B) "IN VIVO" THROMBOSIS MODEL (DiMinno, G., Silver, M. J.; J. Pharmacol. Exptl. Ther. 225:57 (1983)).
This is a suitable method for the screening of antithrombotic agents having a primary activity on platelet thormboembolism.
CD-1 Charles River male mice weighing 30 g were used. They received and i.v. injection of 15 ug collagen and 1.8 ug epinephrine in 100 ul of isotonic solution. About the 90% of the animals died or were paralysed for more than 15 minutes.
Drugs were intraperitoneally administered as a suspension in 0.5% carboxymethylcellulose and the protecting effect thereof against thrombosis was measured one to four hours after the administration.

[2] = system: human platelets (ATP secretion); assay: Releasing reaction (ATP secretion from activated platelets), simultaneous to collagen aggregation; type: cell-based; conditions: Platelet, 0.25 h, human PRP, compound 10^-4 M, 37° C., 15 minutes, 2 ug/ml collagen
Experimental: (§1) Citrated human blood was used, from which platelet-rich plasma (PRP) was prepared. 450 ul PRP aliquots were incubated at 37° C. with the assayed compounds at a single concentration of 10^-4 M for 15 minutes. Aggregating agents (2 ug/ml collagen and 2.5 uM ADP) were added in a 50 ul volume and the aggregation was measured as optical density decrease in the platelet suspension.

[3] = system: human platelets (ADP-induced aggregation); assay: "In vitro" aggregation on human platelets (PRP), ADP-induced; type: cell-based; conditions: Platelet, 0.25 h, compound 10^-4 M, 37° C., 15 minutes, 2.5 uM ADP
Experimental: (§2) (Born, G.V.R., Nature 194:927 (1962)).
as §1

[4] = system: human platelets (collagen-induced aggregation); assay: "In vitro" aggregation on human platelets (PRP), collagen-induced; type: cell-based; conditions: Platelet, 0.25 h, compound 10^-4 M, 37° C., 15 minutes, 2 ug/ml collagen
Experimental: as §2, §1

| Structure (SMILES) | Protection % ([1]; 30 mg/kg intraperitoneal) [%] | Protection % ([1]; 60 mg/kg intraperitoneal) [%] | inhibition at 100 µM [2] [%] | inhibition at 100 µM [3] [%] | inhibition at 100 µM [4] [%] |
| --- | --- | --- | --- | --- | --- |
| OCCN(CCO)c1nc(N2CCCCC2)c2nc(N(CCO)CCO)nc(N3CCCCC3)c2n1 [DIPYRIDAMOL, reference compound] | 30 | 30 | – | – | – |
| CCOC(=O)C1=C(C)NC(C)=C(C(=O)OCCN2C(=O)c3ccccc3S2(=O)=O)C1C (centres unmarked) [Example 1, 2-{N-(1,2-benzisothiazolyl-3(2H)one-1,1-dioxide)} ethyl 2,6-dimethyl-5-ethoxycarbonyl-4-methyl-1,4-dihydropyridine-3-carboxylate] | 50 | 70 | 80 | 12 | 84 |
| COC(=O)C1=C(C)NC(C)=C(C(=O)OCCN2C(=O)c3ccccc3S2(=O)=O)C1C (centres unmarked) [Example 2, 2-{N-(1,2-benzisothiazolyl-3(2H)one-1,1-dioxide)} ethyl 2,6-dimethyl-4-methyl-5-methoxycarbonyl-1,4-dihydropyridine-3-carboxylate] | 0 | 42 | 43 | 20 | 48 |
| CC1=C(C(=O)OCCNC(=O)c2ccccc2O)C(C)C(C(=O)OCCN2C(=O)c3ccccc3S2(=O)=O)=C(C)N1 (centres unmarked) [Example 3] | 62 | 62 | 18 | 15 | 24 |
| COC(=O)C1=C(C)NC(C)=C(C(=O)OCN2C(=O)c3ccccc3S2(=O)=O)C1C (centres unmarked) [Example 4, {N-(1,2-benzisothiazolyl-3(2H)one-1,1-dioxide)} methyl 2,6-dimethyl-4-methyl-5-methoxycarbonyl-1,4-dihydropyridine-3-carboxylate] | 20 | 20 | 19 | 5 | 14 |
| CCOC(=O)C1=C(C)NC(C)=C(C(=O)OCN2C(=O)c3ccccc3S2(=O)=O)C1C (centres unmarked) [Example 5, {N-(1,2-benzisothiazolyl-3(2H)one-1,1-dioxide)} methyl 2,6-dimethyl-5-ethoxycarbonyl-4-methyl-1,4-dihydropyridine-3-carboxylate] | 30 | 50 | 51 | 20 | 55 |
| CCCCC1C(C(=O)OC)=C(C)NC(C)=C1C(=O)OCCN1C(=O)c2ccccc2S1(=O)=O (centres unmarked) [Example 6, 2-{N-(1,2-benzisothiazolyl-3(2H)one-1,1-dioxide)} ethyl 4-n-butyl-2,6-dimethyl-5-methoxycarbonyl-1,4-dihydropyridine-3-carboxylate] | 12 | 34 | 29 | 8 | 15 |
